Experimental data reported in patent publication US8513274B2, “Ellipticine compounds for treating obesity” (Etzem, Inc., priority 2009, dated 2013).
Counter-ions that a name gives are not always drawn.

Assay: Reduction of body weight with ellipticine hydrochloride in mice
Format: in vivo
Conditions: initial body weight 30 g, every weekday
Procedure: In order to determine the effect of ellipticine and ellipticine derivatives in reducing body weight, ellipticine hydrochloride was administered to mice every weekday for 4 weeks (30 days) and their body weights tracked. Ellipticine hydrochloride was solubilized in saline and administered via intraperitoneal injection. Animals were weighed weekly.
Mice (6 per group) were divided into seven groups and given one of the following treatments: • 1. 10 mg ellipticine hydrochloride/kg body weight (Low) • 2. 20 mg ellipticine hydrochloride/kg body weight (Mid) • 3. 30 mg ellipticine hydrochloride/kg body weight (High) • 4. Saline • 5. 3 mg/kg body weight (Positive control 2) • 6. 5 mg/kg body weight (Positive control low) • 7. 10 mg/kg body weight (Positive control high)

For `Cc1c2ccncc2c(C)c2c1[nH]c1ccccc12` [ellipticine hydrochloride], the “body weight loss (decrease of body weight)” value (10 mg/kg (Low) intraperitoneal in saline, end of 4 weeks) was “more than 18%”, the body weight loss (20 mg/kg (Mid) intraperitoneal in saline, end of week 3, animals then sacrificed) was “more than 33%” and the “reduction in body weight” value (30 mg/kg (High) intraperitoneal in saline, end of week 2, animals then sacrificed) was 28%.
